In PubChem BioAssay AID1259407 (Chemical Carcinogenesis Research Information System (CCRIS), 2018) one finds mutagenic call data, which are given here for 7 compounds.

The source made the active and inactive calls. No rule for the calls is given here.

The subject of the series is CCRIS mutagenicity, Ames/micronucleus/aberration tests. Nature of the series: CCRIS mutagenicity studies.
Where [1] appears, read: Test System: AMES SALMONELLA TYPHIMURIUM, Strain/Indicator: TA98, Metabolic Activation: NONE, Method: STANDARD PLATE.
[2] abbreviates: Test System: AMES SALMONELLA TYPHIMURIUM, Strain/Indicator: TA100, Metabolic Activation: NONE, Method: STANDARD PLATE.
Where [3] appears, read: Test System: AMES SALMONELLA TYPHIMURIUM, Strain/Indicator: TA1535, Metabolic Activation: NONE, Method: STANDARD PLATE.

With `CC/C=C\C=C\CCCCCCOC(C)=O`, the mutagenic call under setting [1] is “inactive; negative”; the mutagenic call (Test System: AMES SALMONELLA TYPHIMURIUM, Strain/Indicator: TA98, Metabolic Activation: RAT, LIVER, S-9, Method: STANDARD PLATE) was “inactive; negative”; the mutagenic call under setting [2] is “inactive; negative”; the mutagenic call (Test System: AMES SALMONELLA TYPHIMURIUM, Strain/Indicator: TA100, Metabolic Activation: RAT, LIVER, S-9, Method: STANDARD PLATE) is “inactive; negative”; the mutagenic call (Test System: AMES SALMONELLA TYPHIMURIUM, Strain/Indicator: TA102, Metabolic Activation: NONE, Method: STANDARD PLATE) was “inactive; negative”; the mutagenic call (Test System: AMES SALMONELLA TYPHIMURIUM, Strain/Indicator: TA102, Metabolic Activation: RAT, LIVER, S-9, Method: STANDARD PLATE) was “inactive; negative”.
`O=C(NCc1ccccc1)C(Br)c1ccccc1` (stereo not given): the mutagenic call is “inactive; negative” (Test System: AMES SALMONELLA TYPHIMURIUM, Strain/Indicator: TA100, Metabolic Activation: MOUSE, LIVER, S-9, AROCLOR 1254, Method: STANDARD PLATE) and “inactive; negative” under setting [2].
As to `Cc1cc2c(cc1C)C(C)c1ccccc1-2` (stereo not given), the mutagenic call reads like this: (Test System: AMES SALMONELLA TYPHIMURIUM, Strain/Indicator: TA98, Metabolic Activation: RAT, LIVER, S-9, AROCLOR 1254, Method: STANDARD PLATE) “active; positive”; (Test System: AMES SALMONELLA TYPHIMURIUM, Strain/Indicator: TA100, Metabolic Activation: RAT, LIVER, S-9, AROCLOR 1254, Method: STANDARD PLATE) “active; positive”.
On to `COC(=O)c1occ(-c2ccccc2)c1-c1ccccc1`, for which the mutagenic call is, setting by setting: under setting [1], “inactive; negative”; under setting [2], “inactive; negative”.
As to `C=CC(=O)OCCOC(=O)C=C`, the mutagenic call reads like this: (Test System: AMES SALMONELLA TYPHIMURIUM, Strain/Indicator: TA98, Metabolic Activation: HAMSTER, LIVER, S-9, AROCLOR 1254, Method: STANDARD PLATE) “inactive; negative”; under setting [1], “inactive; negative”; (Test System: AMES SALMONELLA TYPHIMURIUM, Strain/Indicator: TA98, Metabolic Activation: RAT, LIVER, S-9, SODIUM PHENOBARBITAL, Method: STANDARD PLATE) “inactive; negative”; (Test System: AMES SALMONELLA TYPHIMURIUM, Strain/Indicator: TA100, Metabolic Activation: HAMSTER, LIVER, S-9, AROCLOR 1254, Method: STANDARD PLATE) “inactive; negative”; under setting [2], “inactive; negative”; (Test System: AMES SALMONELLA TYPHIMURIUM, Strain/Indicator: TA100, Metabolic Activation: RAT, LIVER, S-9, SODIUM PHENOBARBITAL, Method: STANDARD PLATE) “inactive; negative”. Also, the mutagenic call was “inactive; negative” (Test System: AMES SALMONELLA TYPHIMURIUM, Strain/Indicator: TA1535, Metabolic Activation: HAMSTER, LIVER, S-9, AROCLOR 1254, Method: STANDARD PLATE); “inactive; negative” under setting [3]; “inactive; negative” (Test System: AMES SALMONELLA TYPHIMURIUM, Strain/Indicator: TA1535, Metabolic Activation: RAT, LIVER, S-9, SODIUM PHENOBARBITAL, Method: STANDARD PLATE); “inactive; negative” (Test System: AMES SALMONELLA TYPHIMURIUM, Strain/Indicator: TA1537, Metabolic Activation: HAMSTER, LIVER, S-9, AROCLOR 1254, Method: STANDARD PLATE); “inactive; negative” (Test System: AMES SALMONELLA TYPHIMURIUM, Strain/Indicator: TA1537, Metabolic Activation: NONE, Method: STANDARD PLATE); “inactive; negative” (Test System: AMES SALMONELLA TYPHIMURIUM, Strain/Indicator: TA1537, Metabolic Activation: RAT, LIVER, S-9, SODIUM PHENOBARBITAL, Method: STANDARD PLATE). Besides, the mutagenic call is “inactive; negative” (Test System: AMES SALMONELLA TYPHIMURIUM, Strain/Indicator: TA1538, Metabolic Activation: NONE, Method: STANDARD PLATE); “inactive; negative” (Test System: AMES SALMONELLA TYPHIMURIUM, Strain/Indicator: TA1538, Metabolic Activation: RAT, LIVER, S-9, AROCLOR 1254, Method: STANDARD PLATE); “inactive; negative” (Test System: AMES SALMONELLA TYPHIMURIUM, Strain/Indicator: TA1538, Metabolic Activation: RAT, LIVER, S-9, SODIUM PHENOBARBITAL, Method: STANDARD PLATE).
`O=C1c2ccccc2-c2c1c1ccccc1c(=O)n2CCNCCO`: the mutagenic call is, setting by setting: (Test System: AMES SALMONELLA TYPHIMURIUM, Strain/Indicator: TA97, Metabolic Activation: NONE, Method: STANDARD PLATE) “inactive; negative”; (Test System: AMES SALMONELLA TYPHIMURIUM, Strain/Indicator: TA97, Metabolic Activation: RAT, LIVER, S-9, PHENOBARBITAL AND ALPHA-NAPHTHOFLAVONE, Method: STANDARD PLATE) “inactive; negative”; under setting [1], “inactive; negative”; (Test System: AMES SALMONELLA TYPHIMURIUM, Strain/Indicator: TA98, Metabolic Activation: RAT, LIVER, S-9, PHENOBARBITAL AND ALPHA-NAPHTHOFLAVONE, Method: STANDARD PLATE) “inactive; negative”; under setting [2], “inactive; negative”; (Test System: AMES SALMONELLA TYPHIMURIUM, Strain/Indicator: TA100, Metabolic Activation: RAT, LIVER, S-9, PHENOBARBITAL AND ALPHA-NAPHTHOFLAVONE, Method: STANDARD PLATE) “inactive; negative”. For the same compound, the mutagenic call under setting [3] is “inactive; negative” and the mutagenic call (Test System: AMES SALMONELLA TYPHIMURIUM, Strain/Indicator: TA1535, Metabolic Activation: RAT, LIVER, S-9, PHENOBARBITAL AND ALPHA-NAPHTHOFLAVONE, Method: STANDARD PLATE) is “inactive; negative”.
Consider `C=CC(=O)OCCO`, for which the mutagenic call is “active; positive (structural changes and ploidy)” (End Point: In vitro chromosomal aberrations, Test System: Chinese hamster lung (CHL/IU) cells, Metabolic Activation: Rat, Liver, S9, Phenobarbital and 5,6-benzoflavone); “inactive; negative” (Test System: AMES SALMONELLA TYPHIMURIUM, Strain/Indicator: TA102, Metabolic Activation: RAT, LIVER, S-9, PHENOBARBITAL AND 5,6-BENZOFLAVONE, Method: STANDARD PLATE); “inactive; negative” (Test System: AMES SALMONELLA TYPHIMURIUM, Strain/Indicator: TA2638, Metabolic Activation: RAT, LIVER, S-9, PHENOBARBITAL AND 5,6-BENZOFLAVONE, Method: STANDARD PLATE); “inactive; negative” (Test System: Ames Salmonella typhimurium, Strain/Indicator: TA98, Metabolic Activation: None, Method: Preincubation); “inactive; negative” (Test System: Ames Salmonella typhimurium, Strain/Indicator: TA98, Metabolic Activation: Rat, Liver, S9, Sodium phenobarbital and 5,6-benzoflavone (10%), Method: Preincubation); “inactive; negative” (Test System: Ames Salmonella typhimurium, Strain/Indicator: TA100, Metabolic Activation: None, Method: Preincubation). The mutagenic call (Test System: Ames Salmonella typhimurium, Strain/Indicator: TA100, Metabolic Activation: Rat, Liver, S9, Sodium phenobarbital and 5,6-benzoflavone (10%), Method: Preincubation) was “inactive; negative”; the mutagenic call (Test System: Ames Salmonella typhimurium, Strain/Indicator: TA1535, Metabolic Activation: None, Method: Preincubation) was “inactive; negative”; the mutagenic call (Test System: Ames Salmonella typhimurium, Strain/Indicator: TA1535, Metabolic Activation: Rat, Liver, S9, Sodium phenobarbital and 5,6-benzoflavone (10%), Method: Preincubation) was “inactive; negative”; the mutagenic call (Test System: Ames Salmonella typhimurium, Strain/Indicator: TA1537, Metabolic Activation: None, Method: Preincubation) is “inactive; negative”; the mutagenic call (Test System: Ames Salmonella typhimurium, Strain/Indicator: TA1537, Metabolic Activation: Rat, Liver, S9, Sodium phenobarbital and 5,6-benzoflavone (10%), Method: Preincubation) is “inactive; negative”; the mutagenic call (Test System: E. COLI, Strain/Indicator: WP2 (PKM101), Metabolic Activation: RAT, LIVER, S-9, PHENOBARBITAL AND 5,6-BENZOFLAVONE, Method: STANDARD PLATE) is “active; positive”. The mutagenic call is “active; positive” (Test System: E. COLI, Strain/Indicator: WP2 UVRA (PKM101), Metabolic Activation: RAT, LIVER, S-9, PHENOBARBITAL AND 5,6-BENZOFLAVONE, Method: STANDARD PLATE); “active; positive” (Test System: E. coli, Strain/Indicator: WP2uvrA/pKM101, Metabolic Activation: None, Method: Preincubation); “active; positive” (Test System: MOUSE LYMPHOMA, Strain/Indicator: L5178Y (TK+/TK-), Metabolic Activation: NONE, Method: SUSPENSION/PLATE).
